Source: ChEMBL document CHEMBL1201861, “Genomics of Drug Sensitity in Cancer screening data, Wellcome Trust Sanger Institute”

Assays:
Experiment in all cases: cells
[1] = test system: COLO-741; format: functional, cell-based, Homo sapiens; details: Homo sapiens, COLO-741
Description: SANGER: Inhibition of human COLO-741 cell growth in a cell viability assay.

[2] = test system: COR-L23; format: functional, cell-based, Homo sapiens; details: Homo sapiens, COR-L23;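 also: cell viability assay measuring how strongly compounds suppress growth of COR-L23 cells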
Description: SANGER: Inhibition of human COR-L23 cell growth in a cell viability assay.

[3] = test system: Ca-Ski; format: functional, cell-based; details: Homo sapiens;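 also: cell viability assay measuring inhibition of Ca-Ski cell growth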
Description: SANGER: Inhibition of human Ca-Ski cell growth in a cell viability assay.

[4] = test system: D-392MG; format: functional, cell-based, Homo sapiens; details: Homo sapiens, D-392MG
[5] = test system: D-502MG; format: functional, cell-based, Homo sapiens; details: Homo sapiens, D-502MG
Description: SANGER: Inhibition of human D-502MG cell growth in a cell viability assay.

[6] = test system: EW-24; format: functional, cell-based; details: Homo sapiens;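 also: human EW-24 cancer cell line, growth inhibition read out via a cell viability assay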
Description: SANGER: Inhibition of human EW-24 cell growth in a cell viability assay.

[7] = test system: GI-ME-N; format: functional, cell-based, Homo sapiens; details: Homo sapiens, GI-ME-N;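 also: growth inhibition of human GI-ME-N cells, read out with a cell viability assay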
Description: SANGER: Inhibition of human GI-ME-N cell growth in a cell viability assay.

[8] = test system: GMS-10; format: functional, cell-based, Homo sapiens; details: Homo sapiens, GMS-10;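 also: growth inhibition of GMS-10 cells, read out as cell viability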
Description: SANGER: Inhibition of human GMS-10 cell growth in a cell viability assay.

[9] = test system: GT3TKB; format: functional, cell-based, Homo sapiens; details: Homo sapiens, GT3TKB;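 also: growth inhibition of the cell line, read out with a cell viability assay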
Description: SANGER: Inhibition of human GT3TKB cell growth in a cell viability assay.

[10] = test system: HCC1569; format: functional, cell-based, Homo sapiens; details: Homo sapiens, HCC1569;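 also: growth inhibition of human HCC1569 cells, read out with a cell viability assay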
Description: SANGER: Inhibition of human HCC1569 cell growth in a cell viability assay.

[11] = test system: HCC70; format: functional, cell-based, Homo sapiens; details: Homo sapiens, HCC70;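 also: cell viability assay measuring how strongly the compound suppresses proliferation of HCC70 cells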
Description: SANGER: Inhibition of human HCC70 cell growth in a cell viability assay.

[12] = test system: HEC-1; format: functional, cell-based, Homo sapiens; details: Homo sapiens, HEC-1;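 also: growth inhibition of the cell line, read out with a cell viability assay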
Description: SANGER: Inhibition of human HEC-1 cell growth in a cell viability assay.

[13] = test system: HT-1080; format: functional, cell-based, Homo sapiens; details: Homo sapiens, HT-1080
Description: SANGER: Inhibition of human HT-1080 cell growth in a cell viability assay.

[14] = test system: HT1197; format: functional, cell-based, Homo sapiens, HT-1197; details: Homo sapiens, HT1197
Description: SANGER: Inhibition of human HT-1197 cell growth in a cell viability assay.

[15] = test system: Hs-578T; format: functional, cell-based, Homo sapiens; details: Homo sapiens, Hs-578T
Description: SANGER: Inhibition of human Hs-578-T cell growth in a cell viability assay.

[16] = test system: JVM-3; format: functional, cell-based; details: Homo sapiens;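 also: growth inhibition of human JVM-3 cells, read out with a cell viability assay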
Description: SANGER: Inhibition of human JVM-3 cell growth in a cell viability assay.

[17] = test system: KP-N-YN; format: functional, cell-based; details: Homo sapiens;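 also: growth inhibition of KP-N-YN cells, read out with a cell viability assay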
Description: SANGER: Inhibition of human KP-N-YN cell growth in a cell viability assay.

[18] = test system: KYSE-140; format: functional, cell-based, Homo sapiens; details: Homo sapiens, KYSE-140;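 also: cell viability assay measuring growth inhibition in human KYSE-140 cells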
Description: SANGER: Inhibition of human KYSE-140 cell growth in a cell viability assay.

[19] = test system: KYSE-150 cell line; format: functional, cell-based, Homo sapiens; details: Homo sapiens, KYSE-150;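 also: growth inhibition of human KYSE-150 cells, read out with a cell viability assay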
Description: SANGER: Inhibition of human KYSE-150 cell growth in a cell viability assay.

[20] = test system: KYSE-450; format: functional, cell-based; details: Homo sapiens;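 also: cell growth inhibition measured by a viability assay in human KYSE-450 cells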
Description: SANGER: Inhibition of human KYSE-450 cell growth in a cell viability assay.

[21] = test system: L-363; format: functional, cell-based; details: Homo sapiens
Description: SANGER: Inhibition of human L-363 cell growth in a cell viability assay.

[22] = test system: LAN-6; format: functional, cell-based, Homo sapiens; details: Homo sapiens, LAN-6;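 also: growth inhibition of LAN-6 cells, determined with a cell viability assay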
Description: SANGER: Inhibition of human LAN-6 cell growth in a cell viability assay.

[23] = test system: LU-134-A; format: functional, cell-based; details: Homo sapiens
Description: SANGER: Inhibition of human LU-134-A cell growth in a cell viability assay.

[24] = test system: LoVo; format: functional, cell-based; details: Homo sapiens;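 also: growth inhibition of human LoVo cells, read out with a cell viability assay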
Description: SANGER: Inhibition of human LoVo cell growth in a cell viability assay.

[25] = test system: MDA-MB-361; format: functional, cell-based, Homo sapiens; details: Homo sapiens, MDA-MB-361
[26] = test system: MOLT-4; format: functional, cell-based; details: Homo sapiens;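 also: growth inhibition of MOLT-4 cells, determined with a cell viability readout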
Description: SANGER: Inhibition of human MOLT-4 cell growth in a cell viability assay.

[27] = test system: MV4-11; format: functional, cell-based, MV-4-11; details: Homo sapiens;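 also: cell viability readout measuring growth inhibition of human MV-4-11 cells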
Description: SANGER: Inhibition of human MV-4-11 cell growth in a cell viability assay.

[28] = test system: MZ7-mel; format: functional, cell-based, Homo sapiens; details: Homo sapiens, MZ7-mel;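 also: growth inhibition of human MZ7-mel cells, measured by a cell viability assay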
[29] = test system: NCI-H2087; format: functional, cell-based, Homo sapiens; details: Homo sapiens, NCI-H2087;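 also: growth inhibition determined with a cell viability readout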
Description: SANGER: Inhibition of human NCI-H2087 cell growth in a cell viability assay.

[30] = test system: NCI-H2347; format: functional, cell-based, Homo sapiens; details: Homo sapiens, NCI-H2347;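 also: growth inhibition of the cell line, read out with a cell viability assay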
Description: SANGER: Inhibition of human NCI-H2347 cell growth in a cell viability assay.

[31] = test system: NCI-H2405; format: functional, cell-based, Homo sapiens; details: Homo sapiens, NCI-H2405;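 also: growth inhibition of the human cell line, read out with a cell viability assay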
Description: SANGER: Inhibition of human NCI-H2405 cell growth in a cell viability assay.

[32] = test system: NCI-H358; format: functional, cell-based, Homo sapiens; details: Homo sapiens, NCI-H358;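 also: growth inhibition of NCI-H358 human cells, read out with a cell viability assay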
Description: SANGER: Inhibition of human NCI-H358 cell growth in a cell viability assay.

[33] = test system: NCI-H810; format: functional, cell-based, Homo sapiens; details: Homo sapiens, NCI-H810;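 also: IC50 reflects inhibition of cancer cell line growth, read out with a cell viability assay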
Description: SANGER: Inhibition of human NCI-H810 cell growth in a cell viability assay.

[34] = test system: OE19; format: functional, cell-based, Homo sapiens; details: Homo sapiens, OE19;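 also: growth inhibition of OE19 cells, measured through a cell viability read-out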
Description: SANGER: Inhibition of human OE19 cell growth in a cell viability assay.

[35] = test system: ONS-76; format: functional, cell-based, Homo sapiens; details: Homo sapiens, ONS-76;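 also: growth inhibition of human ONS-76 cells, read out with a cell viability assay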
[36] = test system: RCC10RGB; format: functional, cell-based, Homo sapiens; details: Homo sapiens, RCC10RGB;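 also: growth inhibition of human RCC10RGB cells, read out by a cell viability assay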
Description: SANGER: Inhibition of human RCC10RGB cell growth in a cell viability assay.

[37] = test system: RCM-1; format: functional, cell-based, Homo sapiens; details: Homo sapiens, RCM-1;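 also: growth inhibition of the RCM-1 line, determined with a cell viability readout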
Description: SANGER: Inhibition of human RCM-1 cell growth in a cell viability assay.

[38] = test system: RS4-11; format: functional, cell-based; details: Homo sapiens;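 also: growth inhibition of RS4-11 cells, read out by a cell viability assay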
Description: SANGER: Inhibition of human RS4-11 cell growth in a cell viability assay.

[39] = test system: RXF 393; format: functional, cell-based; details: Homo sapiens;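 also: growth inhibition of human RXF 393 cells, read out with a cell viability assay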
[40] = test system: SCC-25; format: functional, cell-based, Homo sapiens; details: Homo sapiens, SCC-25;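 also: growth inhibition of SCC-25 cells, measured with a cell viability assay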
[41] = test system: SCC-9; format: functional, cell-based, Homo sapiens; details: Homo sapiens, SCC-9;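 also: Read-out is a cell viability assay, with values giving inhibition of cell growth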
Description: SANGER: Inhibition of human SCC-9 cell growth in a cell viability assay.

[42] = test system: SK-LU-1; format: functional, cell-based, Homo sapiens; details: Homo sapiens, SK-LU-1;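 also: cell viability assay measuring growth inhibition of human SK-LU-1 cells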
Description: SANGER: Inhibition of human SK-LU-1 cell growth in a cell viability assay.

[43] = test system: SK-MEL3; format: functional, cell-based, Homo sapiens, SK-MEL-3; details: Homo sapiens, SK-MEL3;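 also: growth inhibition of human SK-MEL-3 cells, read out with a cell viability assay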
Description: SANGER: Inhibition of human SK-MEL-3 cell growth in a cell viability assay.

[44] = test system: SW780; format: functional, cell-based, Homo sapiens; details: Homo sapiens, SW780;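 also: growth inhibition of the cells, read out with a cell viability assay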
[45] = test system: ALL-PO; format: functional, cell-based; details: Homo sapiens;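 also: growth inhibition of ALL-PO cells, read out by a cell viability assay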
Description: SANGER: Inhibition of human ALL-PO cell growth in a cell viability assay.

[46] = test system: BT-474; format: functional, cell-based, Homo sapiens; details: Homo sapiens, BT-474
Description: SANGER: Inhibition of human BT-474 cell growth in a cell viability assay.

[47] = test system: BV-173; format: functional, cell-based; details: Homo sapiens
Description: SANGER: Inhibition of human BV-173 cell growth in a cell viability assay.

[48] = test system: TYK-nu; format: functional, cell-based, Homo sapiens; details: Homo sapiens, TYK-nu;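 also: growth inhibition of human TYK-nu cells, read out by a cell viability assay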
Description: SANGER: Inhibition of human TYK-nu cell growth in a cell viability assay.

[49] = test system: UACC-893; format: functional, cell-based, Homo sapiens; details: Homo sapiens, UACC-893
Description: SANGER: Inhibition of human UACC-893 cell growth in a cell viability assay.

[50] = test system: WM-115; format: functional, cell-based, Homo sapiens; details: Homo sapiens, WM-115
Description: SANGER: Inhibition of human WM-115 cell growth in a cell viability assay.

[51] = test system: CCRF-CEM; format: functional, cell-based; details: Homo sapiens;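 also: inhibition of CCRF-CEM cell growth, measured by a cell viability assay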
Description: SANGER: Inhibition of human CCRF-CEM cell growth in a cell viability assay.

`CN(C)C/C=C/C(=O)Nc1cc2c(Nc3ccc(F)c(Cl)c3)ncnc2cc1O[C@H]1CCOC1` [AFATINIB] showed an IC50 [1] greater than 0.5 µM, an IC50 [2] greater than 0.5 µM and an IC50 [3] greater than 0.5 µM. The IC50 [4] was greater than 0.5 µM, the IC50 [5] was greater than 0.5 µM and the IC50 [6] was greater than 0.5 µM. For the same compound, the IC50 [7] was greater than 0.5 µM, the IC50 [8] was greater than 0.5 µM and the IC50 [9] was greater than 0.5 µM. For the same compound, the IC50 [10] was greater than 0.5 µM, the IC50 [11] was greater than 500 nM and the IC50 [12] was greater than 0.5 µM. The IC50 [13] was greater than 0.5 µM, the IC50 [14] was greater than 0.5 µM and the IC50 [15] was greater than 0.5 µM. It also gave an IC50 [16] greater than 0.5 µM, an IC50 [17] greater than 0.5 µM and an IC50 [18] of 0.0833 µM. For the same compound, the IC50 [19] was greater than 0.5 µM, the IC50 [20] was 59.8 nM and the IC50 [21] was greater than 500 nM. For the same compound, the IC50 [22] was greater than 0.5 µM, the IC50 [23] was greater than 0.5 µM and the IC50 [24] was greater than 500 nM. It also gave an IC50 [25] greater than 0.5 µM, an IC50 [26] greater than 0.5 µM and an IC50 [27] greater than 0.5 µM. It also gave an IC50 [28] greater than 500 nM, an IC50 [29] greater than 0.5 µM and an IC50 [30] greater than 0.5 µM. The IC50 [31] was greater than 0.5 µM, the IC50 [32] was greater than 0.5 µM and the IC50 [33] was greater than 0.5 µM. For the same compound, the IC50 [34] was greater than 0.5 µM, the IC50 [35] was greater than 500 nM and the IC50 [36] was greater than 0.5 µM. For the same compound, the IC50 [37] was greater than 500 nM, the IC50 [38] was greater than 0.5 µM and the IC50 [39] was greater than 500 nM. For the same compound, the IC50 [40] was greater than 0.5 µM, the IC50 [41] was greater than 0.5 µM and the IC50 [42] was greater than 0.5 µM. For the same compound, the IC50 [43] was greater than 0.5 µM, the IC50 [44] was greater than 0.5 µM and the IC50 [45] was greater than 0.5 µM. The IC50 [46] was 49.9 nM, the IC50 [47] was 176 nM and the IC50 [48] was greater than 500 nM. For the same compound, the IC50 [49] was 119 nM, the IC50 [50] was greater than 500 nM and the IC50 [51] was greater than 0.5 µM.
With `O=C(NOCC1CC1)c1ccc(F)c(F)c1Nc1ccc(I)cc1Cl` [CI-1040] the IC50 [1] was 3.19 µM, the IC50 [2] was 7.24 µM and the IC50 [3] was greater than 10 µM. It also gave an IC50 [4] greater than 10 µM, an IC50 [5] greater than 10 µM and an IC50 [6] greater than 10 µM. The IC50 [7] was greater than 10 µM, the IC50 [8] was greater than 10 µM and the IC50 [9] was 5.47 µM. The IC50 [10] was greater than 10 µM, the IC50 [11] was 2020 nM and the IC50 [12] was greater than 10 µM. For the same compound, the IC50 [13] was 3.02 µM, the IC50 [14] was greater than 10 µM and the IC50 [15] was 5.54 µM. It also gave an IC50 [16] greater than 10 µM, an IC50 [17] greater than 10 µM and an IC50 [18] of 6.02 µM. The IC50 [19] was greater than 10 µM, the IC50 [20] was greater than 10000 nM and the IC50 [21] was 2740 nM. The IC50 [22] was 4.32 µM, the IC50 [23] was greater than 10 µM and the IC50 [24] was 1460 nM. It also gave an IC50 [25] greater than 10 µM, an IC50 [26] greater than 10 µM and an IC50 [27] of 6.23 µM. For the same compound, the IC50 [28] was 263 nM, the IC50 [29] was 3.85 µM and the IC50 [30] was greater than 10 µM. The IC50 [31] was greater than 10 µM, the IC50 [32] was 4.45 µM and the IC50 [33] was greater than 10 µM. For the same compound, the IC50 [34] was greater than 10 µM, the IC50 [35] was 1220 nM and the IC50 [36] was greater than 10 µM. For the same compound, the IC50 [37] was 1240 nM, the IC50 [38] was 5.67 µM and the IC50 [39] was 1980 nM. For the same compound, the IC50 [40] was 7.71 µM, the IC50 [41] was greater than 10 µM and the IC50 [42] was 3.69 µM. The IC50 [43] was 3.85 µM, the IC50 [44] was 3.14 µM and the IC50 [45] was 4.36 µM. It also gave an IC50 [46] greater than 10000 nM, an IC50 [47] of 1440 nM and an IC50 [48] of 1030 nM. It also gave an IC50 [49] greater than 10000 nM, an IC50 [50] of 493 nM and an IC50 [51] greater than 10 µM.
